In publication PMC8726015 (ACS chemical biology, 2021):

How the values were obtained:
[1] = target: T1, human phosphopantothenoylcysteine synthetase (hPPCS) (Homo sapiens, UniProt Q9HAB8); assay: X-ray crystal structure at […] Å; type: binding
[2] = target: T2, human pantothenate kinase hPANK1β (Homo sapiens, UniProt Q8TE04); assay: PK/LDH-coupled kinase assay, substrate turnover; type: biochemical; conditions: read-out: KM or K0.5
T2 sequence (Q8TE04 1-373 isoform Q8TE04-2): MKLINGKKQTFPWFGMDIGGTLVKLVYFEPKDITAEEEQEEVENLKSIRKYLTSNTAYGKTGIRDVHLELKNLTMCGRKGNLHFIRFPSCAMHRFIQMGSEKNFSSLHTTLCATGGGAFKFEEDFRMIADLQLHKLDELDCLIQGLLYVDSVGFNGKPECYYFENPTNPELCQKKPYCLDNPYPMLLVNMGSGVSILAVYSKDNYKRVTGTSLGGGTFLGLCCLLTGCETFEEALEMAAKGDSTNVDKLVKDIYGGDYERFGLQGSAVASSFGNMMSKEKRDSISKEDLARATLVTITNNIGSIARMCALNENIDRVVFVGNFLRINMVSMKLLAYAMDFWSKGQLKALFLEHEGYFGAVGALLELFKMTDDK

[3] = target: T1, human phosphopantothenoylcysteine synthetase (hPPCS); assay: X-ray crystal structure at […] Å; type: biochemical
[4] = target: T3, fruit fly phosphopantothenoylcysteine synthetase (dPPCS) (Drosophila melanogaster, UniProt Q7KN99); assay: pyrophosphate-coupled NADH oxidation enzyme assay; type: biochemical
T3 sequence (Q7KN99 1-313): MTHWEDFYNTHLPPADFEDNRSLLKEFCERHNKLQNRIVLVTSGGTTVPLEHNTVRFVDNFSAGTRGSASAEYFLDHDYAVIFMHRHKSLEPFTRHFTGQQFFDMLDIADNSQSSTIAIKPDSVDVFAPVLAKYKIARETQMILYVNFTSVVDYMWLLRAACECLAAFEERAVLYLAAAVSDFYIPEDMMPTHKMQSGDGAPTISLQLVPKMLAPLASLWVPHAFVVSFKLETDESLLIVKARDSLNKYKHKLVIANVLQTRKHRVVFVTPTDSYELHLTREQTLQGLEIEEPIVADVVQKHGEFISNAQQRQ

T1 sequence (Q9HAB8 2-311): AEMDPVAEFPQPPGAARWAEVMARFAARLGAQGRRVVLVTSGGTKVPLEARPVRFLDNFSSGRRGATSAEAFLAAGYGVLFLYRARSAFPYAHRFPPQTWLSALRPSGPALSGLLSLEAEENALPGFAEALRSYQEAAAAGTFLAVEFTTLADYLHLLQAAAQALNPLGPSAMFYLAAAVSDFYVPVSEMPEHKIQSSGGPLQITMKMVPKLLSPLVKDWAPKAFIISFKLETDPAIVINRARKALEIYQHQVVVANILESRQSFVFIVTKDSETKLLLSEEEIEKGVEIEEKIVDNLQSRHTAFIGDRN

| SMILES | Km [2] [µM] | other results |
| --- | --- | --- |
| Nc1ncnc2c1ncn2[C@@H]1O[C@H](CO[P@](=O)(O)O[P@](=O)(O)NP(=O)(O)O)[C@@H](O)[C@H]1O [AMPPNP] |  | X-ray crystal structure at 1.9 Å (ternary complex with P-HoPan) [1]: electron densities for the co-factor AMPPNP and the ligand P-HoPan observed in both monomers |
| CC(C)(COP(=O)(O)O)[C@@H](O)C(=O)NCCCC(=O)O [compound 2, P-HoPan] |  | Ki [3]: 13.4 ± 3.6 µM; Ki [4]: 20.9 ± 1.1 µM |

More lines, main results first:

| Km [2] [µM] | SMILES | other results |
| --- | --- | --- |
| 6.2 ± 0.88 | CC(C)(CO)[C@@H](O)C(=O)NCCC(=O)O [compound 3, Pan] |  |
| 12.1 ± 1.9 | CC(C)(CO)[C@@H](O)C(=O)NCCCC(=O)O [compound 1, HoPan] |  |
| 9.85 ± 1.17 | CC(C)(CO)[C@@H](O)C(=O)NCCC(=O)NCCS [compound 6, PantSH] |  |
